These results are taken from ChEMBL document CHEMBL5360530, “Structure activity relationship (SAR) and anticancer activity of pyrrolidine derivatives: Recent developments and future prospects (A review)” (Eur J Med Chem, 2023).

A value given as a limit tells only on which side of the number the result lay.

As a reminder, the IC50 is the concentration needed to halve the response being measured. By inhibition is commonly meant the percentage by which the read-out fell short of the control. The term GI50 denotes the concentration at which growth is held to half of that of the control.

Assay [1] deals with HT-29. Description: Anticancer activity against human HT-29 cells assessed as cell growth inhibition measured after 24 hrs by MTT assay. The class given is functional, cell-based. As to conditions: HT-29, 24 h.
Assay [2] has as its system MCF7. Briefly: Anticancer activity against human MCF7 cells assessed as cell growth inhibition measured after 24 hrs by MTT assay. The class given is functional, cell-based. As to conditions: MCF7, 24 h. In general terms: Tetrazolium assays rely on reduction of a dye to a coloured formazan, in cell work by metabolically active cells.
A further assay deals with COS-7. Briefly: Anticancer activity against COS-7 cells assessed as cell growth inhibition at 50 uM measured after 48 hrs by MTT assay relative to control. The class given is functional. Particulars: Chlorocebus aethiops.
The next assay has as its system HepG2. Briefly: Anticancer activity against human HepG2 cell assessed as cell growth inhibition. The class given is functional, cell-based.
Assay [3] has as its system PC-3. Briefly: Potency index, ratio of cisplatin IC50 to test compound IC50 for anticancer activity against human PC-3 cells. The class given is functional.
Assay [4] has as its system HT-29. Briefly: Anticancer activity against human HT-29 cells assessed as cell growth inhibition measured after 48 hrs by MTT assay. The class given is functional, cell-based. As to conditions: HT-29, 48 h.
A further assay deals with K562. Description: Anticancer activity against human K562 cells assessed as cell growth inhibition measured after 48 hrs by MTT assay. The class given is functional, cell-based. As to conditions: K562, 48 h.
For assay [5], the system named is MCF7. Description: Anticancer activity against human MCF7 cells assessed as cell growth inhibition measured after 48 hrs by MTT assay. The class given is functional, cell-based. Particulars: MCF7, 48 h.
For assay [6], the system named is MCF7. Description: Anticancer activity against human MCF7 cells assessed as cell growth inhibition measured after 24 hrs by SRB assay. The class given is functional, cell-based. As to conditions: MCF7, 24 h. (The SRB assay estimates cell density from bound dye.)
Another assay has as its system Huh-7. Description: Anticancer activity against human Huh-7 cells assessed as cell growth inhibition measured after 24 hrs by SRB assay. The class given is functional, cell-based. Particulars: Huh-7, 24 h.
In the next assay the test system is Mahlavu. Description: Anticancer activity against human Mahlavu cells assessed as cell growth inhibition measured after 24 hrs by SRB assay. The class given is functional, cell-based.
The subject of another assay is HCT-116. Description: Anticancer activity against human HCT-116 cells assessed as cell growth inhibition measured after 24 hrs by SRB assay. The class given is functional, cell-based. As to conditions: HCT-116, 24 h.
Assay [7] concerns MDA-MB-435. Description: Anticancer activity against human MDA-MB-435 cells assessed as cell growth inhibition by SRB assay. The class given is functional, cell-based.
For assay [8], the system named is MDA-MB-435. Description: Growth inhibition of human MDA-MB-435 cells assessed as cell growth inhibition by SRB assay. The class given is functional.
The test system of assay [9] is MCF7. Briefly: Anticancer activity against human MCF7 cells assessed as cell growth inhibition by SRB assay. The class given is functional, cell-based.
For assay [10], the system named is PC-3. Briefly: Anticancer activity against human PC-3 cells assessed as cell death at 50 uM measured after 72 hrs by MTT assay relative to control. The class given is functional.
Assay [11] relates to MCF7. Briefly: Growth inhibition of human MCF7 cells assessed as cell growth inhibition by SRB assay. The class given is functional.

Turning to `O=C1c2ccccc2C(=O)N1/N=C/c1ccccc1`, the IC50 in the assay with HT-29 [1] was 644 µM; in the assay on MCF7 [2], 293 µM.

In the case of `O=C1Nc2ccccc2C12CCNC2c1cccc(F)c1` (stereo not given), in the assay with COS-7, the inhibition at 50 µM came to 0.51%.

Turning to `O=C(c1c[nH]c2ccccc12)[C@@H]1[C@@H](c2ccc(Cl)cc2Cl)[C@@H]2CSCN2[C@@]12C(=O)Nc1ccccc12`, the IC50 in the assay with HepG2 came out at 5.5 µM. For the same molecule, the “Ratio IC50” value with PC-3 [3] is more than 4.3.

For `COc1cc(OC)c(C2NCCC23C(=O)Nc2ccccc23)cc1OC` (stereo not given), the inhibition at 50 µM in the assay with COS-7 worked out at 0.51%.

For `COc1cc(/C=N/N2C(=O)c3ccccc3C2=O)cc(OC)c1O`, the IC50 with HT-29 [1] turned out to be 278 µM; in the assay with MCF7 [2] it was 293 µM.

With `O=C1CCC(=O)N1CC(=O)N1N=C(c2ccccc2)CC1c1ccc(F)cc1` (stereo not given), the IC50 with HT-29 [4] is 390 nM; with K562, 0.39 µM; in the assay with MCF7 [5] it was 390 nM.

As for `O=C1CCC(=O)N1CC(=O)N1N=C(c2ccccc2)CC1c1ccc(Cl)c(Cl)c1` (stereo not given), the IC50 in the assay on HT-29 [4] was 390 nM; in the assay on K562, 61.9 µM; in the assay on MCF7 [5] it was 780 nM.

Turning to `O=C1Nc2ccccc2C12CCNC2c1cc(C(F)(F)F)ccc1C(F)(F)F` (stereo not given), the inhibition at 50 µM in the assay on COS-7 is 0.51%.

As for `CCNC(=O)[C@H]1[C@H](c2ccc([N+](=O)[O-])cc2)[C@@]2(C(=O)Nc3ccccc32)[C@H](CC(C)C)N1[C@H](c1ccccc1)[C@@H](O)c1ccccc1`, the IC50 in the assay on MCF7 [6] worked out at 4.8 µM; in the assay with Huh-7, 8.2 µM; with Mahlavu, 14.9 µM; in the assay on HCT-116, 3.9 µM.

In the case of `N#CC1=C(N)OC2=C(C(=O)CO2)C12C(=O)Nc1ccc(Cl)cc12` (stereo not given), the IC50 with MDA-MB-435 [7] is not below 3.6 µM; in the assay with MCF7 [9] it was not below 53 µM. Moreover, in the assay on MDA-MB-435 [8], the GI50 is 2100 nM.

As to `COC(=O)[C@H]1C[C@@H](C(=O)OC)C(c2ccccc2)(c2ccccc2)N1C(=O)Cn1cc(C2CCCC2)nn1`, the Activity with PC-3 [10] came to 30%.

For `N#CC1=C(N)OC2=C(C(=O)CO2)C12C(=O)Nc1ccc(Br)cc12` (stereo not given), the IC50 in the assay on MDA-MB-435 [7] is not below 3.6 µM; with MCF7 [9], not below 53 µM. In the assay on MDA-MB-435 [8], the GI50 amounted to 1800 nM.

For the molecule `CC(=O)Oc1ccc(C(=O)/C=C2/C(=O)Nc3ccc(S(=O)(=O)N4CCOCC4)cc32)cc1`, the IC50 in the assay on HCT-116 is 5.07 µM.

Take `COC(=O)[C@H]1C[C@@H](C(=O)OC)C(c2ccccc2)(c2ccccc2)N1C(=O)Cn1cc(CC2CCCCC2)nn1`: the Activity with PC-3 [10] stood at 64%.

With `CC(C)C[C@@H]1N2[C@H](c3ccccc3)[C@H](c3ccccc3)OC(=O)[C@H]2[C@H](c2ccccc2)[C@@]12C(=O)Nc1ccccc12`, the IC50 stood at 4.8 µM in the assay with MCF7 [6], 8.2 µM in the assay on Huh-7, 14.9 µM in the assay on Mahlavu and 3.9 µM in the assay on HCT-116.

`O=C1c2ccccc2C(=O)N1/N=C/c1ccc(F)c(Br)c1`: the values for the IC50 in the assay with HT-29 [1] and in the assay with MCF7 [2] were 254 µM and 293 µM, respectively.

As for `COC(=O)[C@H]1C[C@@H](C(=O)OC)C(c2ccccc2)(c2ccccc2)N1C(=O)Cn1cc(CCc2ccccc2)nn1`, the Activity with PC-3 [10] turned out to be 25%.

Consider `COC(=O)[C@H]1C[C@@H](C(=O)OC)C(c2ccccc2)(c2ccccc2)N1C(=O)Cn1cc(-c2ccccc2)nn1`, for which the Activity in the assay with PC-3 [10] was 30%.

For the molecule `N#CC1=C(N)OC2=C(C(=O)CO2)C12C(=O)Nc1ccccc12` (stereo not given), the IC50 in the assay with MDA-MB-435 [7] was not below 3.6 µM; with MCF7 [9], not below 53 µM. Also, the GI50 in the assay with MDA-MB-435 [8] was 29900 nM.

Consider `O=C(/C=C/c1ccc(OCCN2CCCC2)cc1)c1ccc(Cl)cc1Cl`, for which the GI50 with MCF7 [11] was more than 80 µg/mL.
